Where a name gives a salt, the structure may show the parent alone. Read-outs that look alike come from different tables or passages of the source.
Legend:
[1] = tested on: dopamine (DA) transmission in the NAc shell; design: method as in PMID 26327678; settings: 0.25 mg/kg i.p., not at 0.125 or 0.5 mg/kg i.p.; not in NAc core and mPFC; ref [9]; cited from earlier work
[2] = tested on: GABAA-mediated post-synaptic currents in VTA DA neurons; design: method as in PMID 26686391, PMID 25232109, PMID 28373077; settings: rat VTA DA neurons, ex vivo; ref [26], [82], [83]; cited from earlier work
[3] = biological target: T1, dopamine transporter (DAT) in the mouse striatum (Mus musculus, UniProt Q61327); experiment: In vivo DaTSCAN SPECT-CT imaging, striatal [123I]-FP-CIT binding; settings: i.p. 30 min before tracer: cocaine 20 mg/kg, amphetamine 10 mg/kg, JWH-018 1 mg/kg, AKB48 1 mg/kg
T1 construct: from tissue; host or cells: striatum of living CD-1 male mice (in vivo imaging)
T1 sequence (Q61327 whole entry): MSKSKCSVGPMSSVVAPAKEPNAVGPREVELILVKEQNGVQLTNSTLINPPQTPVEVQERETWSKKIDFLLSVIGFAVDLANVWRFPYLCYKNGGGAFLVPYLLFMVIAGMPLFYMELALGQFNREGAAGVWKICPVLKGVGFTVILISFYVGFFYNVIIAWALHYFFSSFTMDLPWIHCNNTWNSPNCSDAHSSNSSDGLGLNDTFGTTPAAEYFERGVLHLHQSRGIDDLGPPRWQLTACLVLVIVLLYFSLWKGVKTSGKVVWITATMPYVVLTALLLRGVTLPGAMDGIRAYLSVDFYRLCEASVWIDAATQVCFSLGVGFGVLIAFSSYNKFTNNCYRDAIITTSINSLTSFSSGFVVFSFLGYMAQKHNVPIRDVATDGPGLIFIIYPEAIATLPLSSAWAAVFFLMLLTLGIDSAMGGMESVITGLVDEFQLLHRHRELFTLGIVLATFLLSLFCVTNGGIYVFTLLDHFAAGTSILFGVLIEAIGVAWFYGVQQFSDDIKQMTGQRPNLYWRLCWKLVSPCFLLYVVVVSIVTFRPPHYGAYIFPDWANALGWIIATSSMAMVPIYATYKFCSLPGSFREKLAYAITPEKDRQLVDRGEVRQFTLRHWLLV
Protocol: 18 CD-1 male mice were divided into six different groups (three mice per treatment). […] A control group (i.e., naïve untreated mice) was also included in the study. Thirty minutes after drug administration, all mice were submitted to an intravenous injection with a solution of [^123I]-DaTSCAN (15–20 MBq, ≤200 µl). The body temperature of the animals was maintained at 37°C during the imaging sessions and under the cage, between imaging sessions, using a heating lamp. The SPECT–CT whole-body images were acquired at 1 h and 30 min after [^123I]-FP-CIT injection, with the initial tomographic acquisition starting nearly 15 min after the injection. Each SPECT-CT whole-body acquisition consisted of one bed positions (36 mm), 60 min, 128 views over 360 ([35]). The used energy window is 119–219 keV and the images were reconstructed by using the iterative EM-ML algorithm, including the collimator response. CT images have been acquired, using the digital X-ray imaging system integrated into the YAP(S)PET scanner ([36]). Acquisition parameters for X-ray projections were X-ray tube voltage = 35 keV, anode current = 1 mA, exposure = 1 s, 64 views over 360, and magnification factor = 1.2. Subtraction of dark noise contribution and flat field corrections was accomplished to obtain final images. The CT data were reconstructed by using the FDK algorithm. Amide software ([37]) has been used for images’ registration, visualization and analysis. The size of the ROIs was voxels (100 mm^3 volume), corresponding to entire striatum. These ROIs were used as a template. To avoid the variability of the slice selection and to gain statistical power, the entire striatum volume for the analysis was used. The template was positioned manually (without changing the size and form of the ROIs) on the SPECT images with the backing of anatomical information from LONI MAP 2003 MRI mouse atlas ([38], [39]). For analysis of striatal [^123I]-FP-CIT binding, two consecutive horizontal slices (total thickness approximately 4 mm) with the highest striatal binding were selected. The landmarks for positioning were the intra-orbital glands, striatum, and the borders of the brain. Striatal binding ratios are expressed as average activity per unit volume [Bq/mm^3], each value has been calculated as the ratio between the activity inside the ROI and the ROI volume, normalized for injected activity and for mouse brain weight.

[4] = biological target: CD-1 murine CB1 receptors; settings: ref [6]; read-out: Ki for CB1 receptors, CD-1 murine preparation; cited from earlier work
mouse DAT = biological target: T2, mouse DAT (Mus musculus, UniProt Q61327); experiment: [3H]-WIN 35,428 competition binding, mouse striatal synaptosomes
T2 construct: DAT expressed in mouse striatal nerve terminals; from tissue; host or cells: mouse striatum, crude synaptosomal (P2) fraction
T2 sequence (Q61327 whole entry): as above
Protocol: Competition binding experiments were carried out incubating 8 nM [^3H]-WIN 35,428 (specific activity 84 Ci/mmol; Perkin Elmer, Boston, MA, USA) with CHO membranes transfected with human DAT (Perkin Elmer) or mouse striatal synaptosomes with different concentration of the examined compounds for 120 min at 4°C. Non-specific binding was determined in the presence of 1 µM GBR 12783. At the end of the incubation time, bound and free radioactivity were separated by filtering the assay mixture through Whatman GF/B glass fiber filters in a Brandel cell harvester (Brandel, Unterföhring, Germany). Filter bound radioactivity was counted in a Perkin Elmer 2810TR scintillation counter (Perkin Elmer).
(§1) On the day of the experiment, the animal was euthanized, the brain was rapidly removed, and both striata isolated. Thereafter, a crude synaptosomal (P2) fraction was prepared as follows: the striata were suspended in ice-cold buffered sucrose solution (0.32 M, pH 7.4) and homogenized. The homogenate was centrifuged (10 min, 2,100 g, 4°C) to remove nuclei and debris. The supernatant was further centrifuged at 13,500 g for 20 min at 4°C. For [^3H]-WIN 35,428 binding experiments, the P2 pellet was resuspended in 50 mM Tris–HCl, 100 mM NaCl, pH 7.4. For [^3H]-DA release experiments, the P2 pellet was then resuspended in 5 ml of Kreb’s solution (mM: NaCl 118; KCl 4.4; CaCl2 1.2; MgSO4 1.2; KH2PO4 1.2; NaHCO3 25; glucose 10), gassed 20 min with a mixture of 95% O2 plus 5% CO2 containing [^3H]-DA (50 nM; Perkin Elmer, Monza, Italy), disodium EDTA (0.03 mM), and ascorbic acid (0.05 mM; to prevent [^3H]-DA degradation).

human DAT = biological target: T3, human DAT (Homo sapiens, UniProt Q01959); experiment: [3H]-WIN 35,428 competition binding, CHO membranes transfected with human DAT
T3 construct: purchased Perkin Elmer; host or cells: CHO cells transfected with human DAT (membrane preparation)
T3 sequence (Q01959 whole entry): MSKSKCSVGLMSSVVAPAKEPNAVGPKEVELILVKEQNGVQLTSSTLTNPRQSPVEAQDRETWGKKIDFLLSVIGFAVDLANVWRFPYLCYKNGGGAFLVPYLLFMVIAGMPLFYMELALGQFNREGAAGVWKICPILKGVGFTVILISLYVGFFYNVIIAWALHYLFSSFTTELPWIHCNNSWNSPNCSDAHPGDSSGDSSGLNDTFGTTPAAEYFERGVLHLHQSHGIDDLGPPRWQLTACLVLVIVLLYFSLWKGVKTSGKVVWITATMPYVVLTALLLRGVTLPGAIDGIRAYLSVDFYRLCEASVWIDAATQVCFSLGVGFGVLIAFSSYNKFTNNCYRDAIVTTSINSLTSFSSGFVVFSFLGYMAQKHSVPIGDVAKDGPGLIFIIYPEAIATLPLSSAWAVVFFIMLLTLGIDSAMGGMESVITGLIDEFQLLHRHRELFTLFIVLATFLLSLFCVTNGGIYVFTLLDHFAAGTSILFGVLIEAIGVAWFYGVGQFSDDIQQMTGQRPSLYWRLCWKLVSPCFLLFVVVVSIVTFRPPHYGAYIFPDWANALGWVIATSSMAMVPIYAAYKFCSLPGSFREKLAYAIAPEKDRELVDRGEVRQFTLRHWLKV
Protocol: At the end of the incubation time, bound and free radioactivity were separated by filtering the assay mixture through Whatman GF/B glass fiber filters in a Brandel cell harvester (Brandel, Unterföhring, Germany).

[5] = tested on: DA release in the nucleus accumbens (NAc) shell; experiment: In vivo brain microdialysis, NAc shell extracellular DA; design: species or system mouse; settings: for increase of NAc shell extracellular DA levels (maximal/peak): JWH-018 0.3 mg/kg i.p. (long-lasting), AKB48 0.3 mg/kg i.p. (peak); for NAc shell extracellular DA levels: awake freely moving mice, i.p.: amphetamine 10 mg/kg, cocaine 20 mg/kg, JWH-018 0.3 mg/kg, AKB48 0.3 mg/kg
Protocol: Male ICR (CD-1®) mice, 25–30 g (ENVIGO. Harlan Italy; S. Pietro al Natisone, Italy) were anesthetized with Isoflurane (3%; 200 ml/min) and implanted with vertical dialysis probe (1 mm dialyzing portion) prepared with AN69 fibers (Hospal Dasco, Bologna, Italy) in the NAc shell (A + 1.4, L 0.4 from bregma, V-4.8 from dura) according to the mouse brain atlas by Paxinos and Franklin ([40]). On the day following surgery, probes were perfused with Ringer’s solution (147 mM NaCl, 4 mM KCl, 2.2 mM CaCl2) at a constant rate of 1 µl/min. Dialyzate samples (10 µl) were injected into an HPLC equipped with a reverse phase column (C8 3.5 um, Waters, USA) and a coulometric detector (ESA, Coulochem II) to quantify DA. The first electrode of the detector was set at +130 mV (oxidation) and the second at −175 mV (reduction). The composition of the mobile phase was as follows: 50 mM NaH2PO4, 0.1 mM Na2-EDTA, 0.5 mM n-octyl sodium sulfate, 15% (v/v) methanol, pH 5.5. […] At the end of each experiment, animals were sacrificed and their brains removed and stored in formalin (8%) for histological examination to verify the correct placement of the microdialysis probe.

[6] = tested on: [3H]-DA uptake in mouse striatal synaptosomes; experiment: [3H]-DA uptake in striatal synaptosomes; type: biochemical; settings: for effect on [3H]-DA uptake: GBR 12783 20 nM, JWH-018 and AKB48 100 nM and 1 µM; for reduction of [3H]-DA uptake: cocaine 1 µM, amphetamine 1 µM, added 5 min before 50 nM [3H]-DA, 10 min at 37°C
Protocol: as §1
After synaptosomal preparation, the suspension was maintained under a light and continuous oxygenation (95% O2, 5% CO2) for 20 min at 37°C. Thereafter, 0.5 ml aliquots of striatal synaptosomal suspension were prepared. […] After this period, the reaction was stopped by filtration through microporus nylon filters (0.45 µm, 13 mm; Analytical Technology, Brugherio, Italy). The filters were then washed with 1 ml ice-cold Kreb’s solution and the radioactivity accumulated on synaptosomes was extracted by eluting two times with 1 ml of warm NaOH (1 N) and then determined by liquid scintillation spectrometer. Non-specific uptake was measured by following the same procedure at 0°C.

[7] = tested on: spontaneous [3H]-DA efflux from mouse striatal synaptosomes; experiment: Spontaneous [3H]-DA release from striatal synaptosomes; type: biochemical; settings: amphetamine 10 µM, cocaine 100 nM, JWH-018 and AKB48 100 nM and 1 µM
Protocol: as §1
After synaptosomal preparation, 0.5 ml aliquots of the suspension were distributed on microporous filters placed at the bottom of a set of parallel superfusion chambers maintained at 37°C and perfused with aerated (95% O2/5% CO2) Kreb’s solution (0.3 ml/min). After 30 min of superfusion to equilibrate the system, 5-min fractions were collected from the 30th to the 75th min (nine samples). […] At the end of the experiment, the radioactivity of the samples and filters was determined by liquid scintillation spectrometry (LS1800 Beckman). In view of the results obtained, in a separate set of experiments, [^3H]-DA uptake was also evaluated.

male CD-1 mice = experiment: Spontaneous locomotor activity (ANY-maze video tracking); type: in vivo, mouse; settings: for facilitation of spontaneous locomotion after pretreatment with AM 251 / facilitation of spontaneous locomotion after coadministration of SCH23390 and haloperidol: JWH-018 0.3 mg/kg; for facilitation of spontaneous locomotion after pretreatment with AM 251 / facilitation of spontaneous locomotion after coadministration of SCH23390 and haloperidol / time in the central zone versus peripheral area of the cage / total distance traveled (spontaneous locomotion) / duration of the increase of spontaneous locomotion: AKB48 1 mg/kg; for facilitation of spontaneous locomotion after pretreatment with AM 251: AM 251 1 mg/kg i.p. 20 min before; for facilitation of spontaneous locomotion after coadministration of SCH23390 and haloperidol: SCH23390 0.1 mg/kg i.p. + haloperidol 0.05 mg/kg i.p. 20 min before; for time in the central zone versus peripheral area of the cage / immobility time / total distance traveled (spontaneous locomotion) / duration of the increase of spontaneous locomotion: acute i.p.: JWH-018 0.3 mg/kg; for immobility time: AKB48 1 mg/kg (30 min after administration); for immobility time / total distance traveled (spontaneous locomotion): amphetamine 10 mg/kg; for immobility time / total distance traveled (spontaneous locomotion) / duration of the increase of spontaneous locomotion / time spent in the peripheral arena: cocaine 20 mg/kg; for total distance traveled (spontaneous locomotion): monitored 240 min; for spontaneous locomotion, antagonist by itself: AM 251 1 mg/kg i.p., SCH23390 0.1 mg/kg i.p., haloperidol 0.05 mg/kg i.p.; for time spent in the peripheral arena: acute i.p.: amphetamine 10 mg/kg
Protocol: Drugs were administered by intraperitoneal injection in a volume of 4 μl/g. The used doses of JWH-018 (0.3 and 1 mg/kg i.p.) and AKB48 (0.3 and 1 mg/kg i.p.) were chosen based on previous studies ([6], [7], [9], [10]).
The spontaneous locomotor activity was measured by using the ANY-maze video tracking system (Ugo Basile, application version 4.99 g Beta). The mouse was placed in a square plastic cage (60 cm × 60 cm) located in a sound- and light-attenuated room and motor activity was monitored for 240 min. Four mice were monitored in parallel in each experiment. Parameters measured were distance traveled (meter), total time in the peripheral zone (seconds), total time in the central zone (seconds), and immobility time (seconds; the animal was considered immobile when 95% of his image remained in the same place for at least 2 s). Parameters were analyzed every 15 min for a maximum of 240 min and to avoid mice olfactory cues, cages were carefully cleaned with a dilute (5%) ethanol solution and washed with water between animal trials. All experiments were performed between 9:00 a.m. and 1:00 p.m.

| SMILES | reduction of [123I]-FP-CIT binding in the striatum [3] | Ki (mouse DAT) | spontaneous [3H]-DA efflux from striatal synaptosomes [7] | immobility time (male CD-1 mice) | total distance traveled (spontaneous locomotion) (male CD-1 mice) | duration of the increase of spontaneous locomotion (male CD-1 mice) | spontaneous locomotion, antagonist by itself (male CD-1 mice) | also measured |
| --- | --- | --- | --- | --- | --- | --- | --- | --- |
| CCCCCn1cc(C(=O)c2cccc3ccccc23)c2ccccc21 [JWH-018, 1-pentyl-3-(1-naphthoyl)indole] | ~ 39% | > 10000 nM | did not affect | reduced the immobility time | induced long-lasting increases | 90 min | – | dopamine (DA) transmission in the NAc shell [1]: increases; GABAA-mediated post-synaptic currents [2]: decreases; Ki [4]: 5.82 nM; Ki (human DAT): 7.18 µM; increase of NAc shell extracellular DA levels (maximal/peak) [5]: ~ 150 % of baseline values; NAc shell extracellular DA levels [5]: significantly increased; effect on [3H]-DA uptake [6]: ineffective; facilitation of spontaneous locomotion after pretreatment with AM 251 (male CD-1 mice): prevented; facilitation of spontaneous locomotion after coadministration of SCH23390 and haloperidol (male CD-1 mice): prevented; time in the central zone versus peripheral area of the cage (male CD-1 mice): spent more time in the central zone |
| CCCCCn1nc(C(=O)NC23CC4CC(CC(C4)C2)C3)c2ccccc21 [AKB48, N-(1-adamantyl)-1-pentyl-1H-indazole-3-carboxamide] | ~ 42% | > 10000 nM | did not affect | increased | facilitated the spontaneous locomotion only in the first 15 min | 15 min | – | Ki [4]: 5.34 nM; Ki (human DAT): 4.59 µM; time of peak extracellular DA level after administration ([5]; AKB48 0.3 mg/kg i.p.): 40 min; increase of NAc shell extracellular DA levels (maximal/peak) [5]: ~ 150 % of baseline values; NAc shell extracellular DA levels [5]: significantly increased; effect on [3H]-DA uptake [6]: ineffective; facilitation of spontaneous locomotion after pretreatment with AM 251 (male CD-1 mice): prevented; facilitation of spontaneous locomotion after coadministration of SCH23390 and haloperidol (male CD-1 mice): prevented; time in the central zone versus peripheral area of the cage (male CD-1 mice): spent more time in the central zone |
| Cc1c(C(=O)NN2CCCCC2)nn(-c2ccc(Cl)cc2Cl)c1-c1ccc(I)cc1 [AM 251, reference compound] | – | – | – | – | – | – | did not alter the spontaneous locomotion | – |
| O=C(CCCN1CCC(O)(c2ccc(Cl)cc2)CC1)c1ccc(F)cc1 [haloperidol, 4-[4-(4-chlorophenyl)-4-hydroxypiperidin-1-yl]-1-(4-fluorophenyl)butan-1-one, reference compound] | – | – | – | – | – | – | did not alter the spontaneous locomotion | – |
| C(=C\c1ccccc1)/CN1CCN(CCOC(c2ccccc2)c2ccccc2)CC1 [GBR 12783, 1-(2-benzhydryloxyethyl)-4-[(E)-3-phenylprop-2-enyl]piperazine;dihydrochloride, reference compound] | – | – | – | – | – | – | – | Ki (mouse DAT; 8 nM [3H]-WIN 35,428, 120 min at 4°C, mean ± SEM, read-out: Mouse striatal synaptosomes Ki): 1.72 ± 0.11 nM; Ki (human DAT; 8 nM [3H]-WIN 35,428, 120 min at 4°C, mean ± SEM, read-out: hDAT-CHO membranes Ki): 0.00193 ± 0.00014 µM |
| CN1CCc2cc(Cl)c(O)cc2C(c2ccccc2)C1 (stereo not drawn) [SCH23390, 8-chloro-3-methyl-5-phenyl-1,2,4,5-tetrahydro-3-benzazepin-7-ol, reference compound] | – | – | – | – | – | – | did not alter the spontaneous locomotion | – |
| COC(=O)[C@H]1[C@@H](OC(=O)c2ccccc2)C[C@@H]2CC[C@H]1N2C [Cocaine, reference compound] | ~ 40% | 193 ± 16 nM | induced a significant increase | reduced the immobility time | induced long-lasting increases | 90 min | – | reduction of [3H]-DA uptake [6]: ~50%; time spent in the peripheral arena (male CD-1 mice): increase the time spent in the peripheral arena |
| CC(N)Cc1ccccc1 (stereo not drawn) [Amphetamine, reference compound] | ~ 25% | 622 ± 53 nM | induced a significant increase | reduced the immobility time | induced long-lasting increases | – | – | reduction of [3H]-DA uptake [6]: ~40%; time spent in the peripheral arena (male CD-1 mice): increase the time spent in the peripheral arena |
